In brackets after ≈: the same amount, converted by molar mass. Read-outs that look alike come from different tables or passages of the source.
Columns and labels:
[1] = test system: Staphylococcus aureus SA-1199B; type: cell-based
Text: For purposes of comparison, compound 1 was included as a reference.

[2] = test system: S. aureus SA-1199 (wild type); assay: MIC determination against wild-type SA-1199; type: cell-based; conditions: Staphylococcus aureus, compound alone
Text: This finding aligns with their mechanism of action, which involves the inhibition of NorA, which is only basally expressed in the wild‐type SA‐1199 strain.

[3] = test system: S. aureus SA-K1902 (norA-); assay: Checkerboard assay EPI/CPX against SA-K1902; type: cell-based, Staphylococcus aureus
Method: Checkerboard assays were carried out using SA‐K1902 and SA‐K2378 strains according to standard procedures.

[4] = test system: S. aureus SA-K2378 (norA ++); assay: MIC evaluation against SA-K2378; type: cell-based, Staphylococcus aureus; conditions: Staphylococcus aureus
Text: (§1) Conversely, interesting results were obtained against SA‐K2378, which overexpresses the norA gene (Table 2). […] This corroborates the hypothesis that their activity is strictly related to NorA EP inhibition.
(§2) In this study, the S. aureus strains SA‐1199B (overexpressing norA) and its isogenic parent SA‐1199 (wild type), the pair SA‐K1902 (norA‐depleted) and SA‐K2378 (complemented with a pCU1 plasmid harboring the norA promoting and coding region from SA‐1199B), were used to test EPI activity as described in a previous study. Furthermore, the S. aureus ATCC 29213 was used as the reference strain in MIC determination experiments.

[5] = MTT cytotoxicity assay on MCF7; type: cell-based; conditions: human, MCF7 cells; for viability at 72 h, 12.5 µg/mL: MCF7, 12.5 μg/mL; for viability at 72 h, 12.5 µg/mL / viability at 72 h, 25 µg/mL / viability at 72 h, 50 µg/mL / viability at 72 h, 100 µg/mL: read-out: Cytotoxicity (% cell viability); for viability at 72 h, 25 µg/mL: MCF7, 25 μg/mL; for viability at 72 h, 50 µg/mL: MCF7, 50 μg/mL; for viability at 72 h, 100 µg/mL: MCF7, 100 μg/mL; for CC50 at 72 h: MCF7, MTT
Method: The MTT assay was performed on two human ATCC cell lines, that is, […] (CCL‐185) and MCF7 (HTB‐22), to test the potential cytotoxic effect of the compounds, after 72 h exposure, as previously described. Each compound was tested at concentrations ranging from 12.5 to 100 μg/mL. Untreated cells were considered as controls. The percentage of viable cells was calculated as follows: % Cell viability = 100 × treated well absorbance/untreated control well absorbance. All assays were performed once in technical quadruplicate.

[6] = test system: S. aureus SA-K1902 (norA-); assay: MIC evaluation against SA-K1902; type: cell-based, Staphylococcus aureus; conditions: Staphylococcus aureus
Text: as §1, §2

[7] = biological target: T1, S. aureus NorA efflux pump (SA-1199B strain, overexpresses the norA gene) (Staphylococcus aureus, UniProt P0A0J7); assay: EtBr efflux inhibition assay; type: cell-based; conditions: for inhibition at 50 µM: read-out: EtBr efflux inhibition (%), compound at 50 µM, SA-1199B
T1 construct: endogenous in cells; host or cells: S. aureus SA-1199B (overexpresses norA; isogenic parent SA-1199)
T1 sequence (P0A0J7 whole entry): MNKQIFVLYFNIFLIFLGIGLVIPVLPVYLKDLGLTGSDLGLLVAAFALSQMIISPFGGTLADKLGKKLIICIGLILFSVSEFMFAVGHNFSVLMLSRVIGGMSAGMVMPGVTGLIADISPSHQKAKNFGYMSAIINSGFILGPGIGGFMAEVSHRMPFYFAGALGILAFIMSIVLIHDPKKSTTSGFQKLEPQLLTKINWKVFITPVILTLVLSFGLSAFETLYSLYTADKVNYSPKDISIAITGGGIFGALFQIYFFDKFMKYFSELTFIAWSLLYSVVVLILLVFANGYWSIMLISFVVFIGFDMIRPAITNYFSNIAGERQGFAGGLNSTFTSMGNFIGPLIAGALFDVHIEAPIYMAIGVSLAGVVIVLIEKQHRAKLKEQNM
Method: EtBr efflux inhibition assays were conducted using the S. aureus SA‐1199B strain, which overexpresses the norA gene and has an A116E GrlA substitution. Each compound was tested at 50 µM (see Figure 2). The starting hit compound 1 was used as the internal standard for comparison with the previously reported data.
The cells were grown overnight in cation‐supplemented Mueller–Hinton broth (CAMHB) without any additives at 35°C. The organisms were subsequently diluted into CAMHB to obtain an optical density at 600 nm (OD600) of 0.7–0.8. Subsequently, the cells were pelleted and resuspended at an OD600 of 0.8 in 0.5 mL aliquots of CAMHB containing EtBr and carbonyl cyanide m‐chlorophenylhydrazone (CCCP) to “load” the cells with EtBr (final concentrations of 25 μM for EtBr and 100 μM for CCCP). Following 20 min of incubation at room temperature, the cells were pelleted and resuspended in 1 mL of fresh CAMHB. Immediately thereafter, 200 μL aliquots were transferred into the wells of white 96‐well plates, which either lacked or contained 50 or 10 μM of each test compound. Fluorescence was monitored continuously using a microplate reader (Infinite M200 Pro, TECAN) at excitation and emission wavelengths of 485 and 645 nm, respectively, for a period of 5 min. The experiments were conducted in triplicate, with two technical replicates per biological replicate. The efflux activity of the SA‐1199B strain was expressed as a percentage of fluorescence decrease over a 5‐min time course. The inhibition of this efflux by the test compounds was determined using the following equation: ([efflux in the absence] ‐ [efflux in the presence of test [compound])/[efflux in the absence of test compound] × 100, which yielded the percent efflux inhibition observed.
^a Experiments were performed in triplicate with two technical replicates per biological replicate. Efflux activity of SA-1199B was expressed as percent fluorescence decrease over a 5 min time course. Inhibition of this efflux by test compounds was determined using the equation [efflux in the absence] − [efflux in the presence of test [compound]/[efflux in the absence of test compound] × 100, giving the percent efflux inhibition observed.

[8] = test system: Staphylococcus aureus SA-K2378 biofilm; type: cell-based; conditions: for Biofilm formation (%): CPX 1/4 X MIC + EPI 1,6 µg/ml; for reduction in biofilm formation: EPI at 1.6 µg/mL with CPX at ½ MIC, vs untreated control
Text: The formation of biofilms is a significant contributor to the development of AMR [1, 26, 27]. This is due to the fact that biofilms provide a protective environment for bacteria, thereby rendering them more resilient to the effects of common antibacterial agents. Over the years, several investigations have been conducted to study the role of EPs in the various stages of microbial biofilm formation. However, a definitive answer regarding the potential role of EPs in this microbial pathway remains elusive. While some studies have reported a negative effect of certain EPs on biofilm formation, others have highlighted the promising role of EPIs in limiting biofilm formation and enhancing the efficacy of antibiotics under biofilm conditions.
The biofilm production by SA‐K1902 and SA‐K2378 strains was analyzed in flat 96‐well microtiter plates as previously described, with some modifications. […] The microplates were incubated at 37°C for 24 h in static conditions. After incubation, the biofilms were washed three times with distilled water, dried at 60°C for 1 h, and stained with 0,1% crystal violet for 10 min. After staining, the crystal violet was removed and the wells were washed three times with water, dried at 37°C for 30 min, and the bound crystal violet was solubilized with 96% ethanol in shaking conditions. At the end of the destaining, the absorbance (570 nm) of the solutions in each well was measured using the FLUOstar Omega plate reader (BMG‐LABTECH, Germany) to quantify the biofilm produced in each condition compared with the control (biofilm produced by the strain without any compound/antibiotic). Biofilm assays were performed in triplicate for each condition.

[9] = test system: Staphylococcus aureus SA-1199B; assay: MIC determination (broth microdilution) against SA-1199B; type: cell-based; conditions: SA1199B
Text: as §2

CN1c2c(-c3ccc(Cl)cc3)n[nH]c2-c2ccccc2S1(=O)=O [Compound 10, 3‐(4‐Chlorophenyl)‐4‐methyl‐1,4‐dihydropyrazolo[4,3‐c][1,2]benzothiazine 5,5‐dioxide]
N° fold CPX MIC reduction ([1]; EPI at 12.5 µg/mL): 4 fold
MIC [2]: > 50 µg/mL
CPX MIC ([3]; EPI at 0.2 µg/mL): 0.08 µg/mL
N° CPX MIC reduction ([3]; EPI at 0.2 µg/mL): 2
CPX MIC ([3]; EPI at 0.4 µg/mL): 0.08 µg/mL
N° CPX MIC reduction ([3]; EPI at 0.4 µg/mL): 2
CPX MIC ([3]; EPI at 0.8 µg/mL): 0.08 µg/mL
N° CPX MIC reduction ([3]; EPI at 0.8 µg/mL): 2
CPX MIC ([3]; EPI at 1.6 µg/mL): 0.08 µg/mL
N° CPX MIC reduction ([3]; EPI at 1.6 µg/mL): 2
CPX MIC ([3]; EPI at 3.13 µg/mL): 0.08 µg/mL
N° CPX MIC reduction ([3]; EPI at 3.13 µg/mL): 2
MIC [4]: 12.5 µg/mL (≈ 36.1 µM)
viability at 72 h, 12.5 µg/mL [5]: 66 ± 5%
viability at 72 h, 25 µg/mL [5]: 26 ± 2%
viability at 72 h, 50 µg/mL [5]: 7 ± 1%
viability at 72 h, 100 µg/mL [5]: 6%
CC50 at 72 h [5]: ~25 µg/mL (≈ 72.3 µM)
MIC [6]: 12.5 µg/mL (≈ 36.1 µM)
inhibition at 10 µM ([7]; read-out: EtBr efflux inhibition (%), compound at 10 µM, SA-1199B): 95%
inhibition at 50 µM [7]: 100%
Biofilm formation (%) [8]: untreated control‐like condition
reduction in biofilm formation [8]: 54%
MIC [9]: > 50 µg/mL

O=S1(=O)Nc2c(-c3ccc(Cl)cc3)nn(-c3ccccc3)c2-c2ccccc21 [Compound 3]
N° fold CPX MIC reduction ([1]; EPI at 3.12 µg/mL): 2 fold
MIC [2]: > 50 µg/mL
CPX MIC ([3]; EPI at 0.2 µg/mL): 0.08 µg/mL
N° CPX MIC reduction ([3]; EPI at 0.2 µg/mL): 2
CPX MIC ([3]; EPI at 0.4 µg/mL): 0.08 µg/mL
N° CPX MIC reduction ([3]; EPI at 0.4 µg/mL): 2
CPX MIC ([3]; EPI at 0.8 µg/mL): 0.08 µg/mL
N° CPX MIC reduction ([3]; EPI at 0.8 µg/mL): 2
CPX MIC ([3]; EPI at 1.6 µg/mL): 0.08 µg/mL
N° CPX MIC reduction ([3]; EPI at 1.6 µg/mL): 2
CPX MIC ([3]; EPI at 3.13 µg/mL): 0.08 µg/mL
N° CPX MIC reduction ([3]; EPI at 3.13 µg/mL): 2
CPX MIC ([3]; EPI at 6.25 µg/mL): 0.08 µg/mL
N° CPX MIC reduction ([3]; EPI at 6.25 µg/mL): 2
CPX MIC ([3]; EPI at 12.5 µg/mL): 0.08 µg/mL
N° CPX MIC reduction ([3]; EPI at 12.5 µg/mL): 2
MIC [4]: 25 µg/mL (≈ 61.3 µM)
viability at 72 h, 12.5 µg/mL [5]: 97 ± 10%
viability at 72 h, 25 µg/mL [5]: 84 ± 4%
viability at 72 h, 50 µg/mL [5]: 88 ± 4%
viability at 72 h, 100 µg/mL [5]: 66 ± 7%
CC50 at 72 h [5]: > 100 µg/mL
MIC [6]: > 50 µg/mL
inhibition at 50 µM [7]: 7%
Biofilm formation (%) [8]: positive synergistic effect
reduction in biofilm formation [8]: 83%
MIC [9]: 25 µg/mL (≈ 61.3 µM)

Source: publication PMC12089509, “NorA Efflux Pump Inhibitors: Expanding SAR Knowledge of Pyrazolo[4,3‐c][1,2]benzothiazine 5,5‐Dioxide Derivatives” (Archiv Der Pharmazie, 2025)
